In PMC9927457 (Microbiology Spectrum, 2023):
≈ marks a conversion by molar mass, not a printed value.

Assays:
[1] = tested on: M. tuberculosis wild-type strain; experiment: MIC against wild-type M. tuberculosis; type: cell-based, Mycobacterium tuberculosis; conditions: concentration required to inhibit growth by 90%, 5 days culture; for MIC: Mycobacterium tuberculosis, 120 h, read-out: MIC Wild type
[2] = tested on: M. tuberculosis strain under expressing LepB (LepB-UE); experiment: microbe, parasite or virus in culture; type: cell-based, Mycobacterium tuberculosis; conditions: for MIC: Mycobacterium tuberculosis, 120 h
HepG2 cells = experiment: HepG2 cytotoxicity; type: cell-based, human; conditions: 3 days exposure, CellTiter-Glo
Experimental: HepG2 cells were used to measure eukaryotic cytotoxicity. Viability of HepG2 was measured using CellTiter-Glo reagent (Promega) after 3 days of exposure to compounds. […] Staurosporine controls (maximum inhibition) and a staurosporine dose response were included on every plate.

RAW 264.7 macrophages = experiment: Cytotoxicity against infected macrophages; type: cell-based, murine; conditions: Mus musculus; infected RAW264:7 cells, 72 h; read-out: IC50 Macrophage
Experimental: (§1) Murine RAW 264.7 macrophages (ATCC TIB-71) were infected with M. tuberculosis DsRed (DREAM8) ([29]) as described at a multiplicity of infection of 1 for 24 h, washed, harvested, and dispensed into 384-well plates ([30]). Infected macrophages were exposed to compounds for 72 h; cell nuclei were stained with SYBR green I. Plates were imaged with an ImageXpress Micro High Content Screening System (Molecular Devices) using a ×4 objective and FITC and Texas Red channels. MetaXpress was used to determine the integrated intensity of bacteria or macrophages. […] Isoniazid and staurosporine controls (maximum inhibition) and dose responses were included on every plate.

[3] = tested on: nonreplicating M. tuberculosis; experiment: Kill kinetics, nonreplicating (nutrient starved) bacteria; type: cell-based, Mycobacterium tuberculosis; conditions: nutrient starvation, PBS-tyloxapol
[4] = tested on: replicating M. tuberculosis; experiment: Kill kinetics, replicating bacteria; conditions: aerobic growth
in vitro = conditions: human; for Papp A→B at 2 h, 10 µM / Papp B→A at 2 h, 10 µM / efflux ratio at 2 h, 10 µM: Caco-2
Experimental: (§2) Permeability was measured across Caco-2 cells cultured in a Millipore 96-well Caco-2 plate. For apical to basolateral (A→B) permeability, 10 μM compound was added to the apical (A) side and amount of permeation was determined on the basolateral (B) side; for basolateral to apical (B→A) permeability, the compound was added to the B side and the amount of permeation was determine on the A side. Time points were taken at 2 h.
(§3) Table S2. Permeability. Permeability was measured using Caco-2 cells after 1 and 2 hours incubation with compound. (A→B) is Apical to Basolateral; (B→A) is Basolateral to Apical. Data is expressed as permeability (10-6 cm s-1). dQ/dt is rate of permeation, C0 is initial concentration […]
(§4) Article Duration direction value replicate replicate mean recovery

Caco-2 cells = experiment: Caco-2 permeability; conditions: for recovery: human, 10 μM
Experimental: as §2, §3, §4

[5] = Microsomal metabolic stability; conditions: human, pH 7.4; for half-life at 1 µM: liver microsomes; for microsomal CLint at 1 µM: microsomes
Experimental: as §2
Table S3. Metabolic stability. Metabolic stability was measured using human liver microsomes. […]

[6] = molecular target: SPase activity in M. tuberculosis H37Rv cell membrane fractions (Mycobacterium tuberculosis, UniProt P9WKA1); experiment: Inhibition of secretion (SPase activity) in membrane fractions; type: biochemical; conditions: fluorogenic peptide substrate 2 μM; 4 h, 37 °C
Chain of SPase activity in M. tuberculosis H37Rv cell membrane fractions (P9WKA1 whole entry): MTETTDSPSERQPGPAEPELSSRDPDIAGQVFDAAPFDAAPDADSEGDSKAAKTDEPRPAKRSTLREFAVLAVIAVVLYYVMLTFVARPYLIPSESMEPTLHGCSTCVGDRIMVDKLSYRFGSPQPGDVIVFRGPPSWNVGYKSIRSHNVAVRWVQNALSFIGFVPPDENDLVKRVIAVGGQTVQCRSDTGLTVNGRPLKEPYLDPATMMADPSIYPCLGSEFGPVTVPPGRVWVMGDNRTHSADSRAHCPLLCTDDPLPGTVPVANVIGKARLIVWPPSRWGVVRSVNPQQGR

CYP2B6 = molecular target: T1, CYP2B6 (Homo sapiens, UniProt P20813); experiment: Cytochrome P450 inhibition
T1 sequence (P20813 1-491): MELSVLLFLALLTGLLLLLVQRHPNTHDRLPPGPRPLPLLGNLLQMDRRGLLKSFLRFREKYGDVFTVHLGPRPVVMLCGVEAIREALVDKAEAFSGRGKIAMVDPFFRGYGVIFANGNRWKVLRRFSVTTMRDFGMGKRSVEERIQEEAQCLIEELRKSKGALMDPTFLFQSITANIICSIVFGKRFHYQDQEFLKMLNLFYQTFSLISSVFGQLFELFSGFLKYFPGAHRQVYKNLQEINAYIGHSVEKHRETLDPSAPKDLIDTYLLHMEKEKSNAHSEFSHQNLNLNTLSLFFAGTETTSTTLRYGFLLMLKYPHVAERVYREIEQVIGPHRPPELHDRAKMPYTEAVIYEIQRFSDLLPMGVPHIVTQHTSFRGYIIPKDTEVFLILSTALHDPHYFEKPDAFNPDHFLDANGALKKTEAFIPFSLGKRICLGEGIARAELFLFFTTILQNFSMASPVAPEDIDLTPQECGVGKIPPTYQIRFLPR
Experimental: (§5) Table S4. Inhibition of cytochrome P450s.
(§6) Compounds were tested for inhibition of P450s using the enzyme substrate pairs and conditions noted. IC50s (µM) were calculated. Control P450 inhibitors were included for each isoform.
(§7) For each compound, the analytical method was developed as follows. Analyte signal was optimized for each compound by ESI positive or negative ionization mode. An MS2 scan or an SIM scan was used to optimize fragmenter voltage and a product ion analysis was used to identify the best fragment for analysis. The collision energy was optimized using a product ion or MRM scan. An ionization ranking was assigned indicating the compound’s ease of ionization. Samples […]
(§8) 1200 HPLC and a CTC PAL chilled autosampler, all controlled by MassHunter software (Agilent).
(§9) After separation on a C18 reverse phase HPLC column (Agilent Zorbax StableBond 3.5µm, 2.1 x 30 mm) using an acetonitrile -water gradient system, peaks were analyzed by mass spectrometry (MS) using ESI ionization in MRM mode.
(§10) (1 picture or pasted object on this page, not shown here)
(§11) Serial dilutions of a 10 mM stock solution were prepared in acetonitrile:DMSO (9:1). The final DMSO concentration was < 0.2%. Compounds were incubated with human liver microsomes in the presence of 2 mM NADPH in 100 mM potassium phosphate (pH 7.4) containing 5 mM magnesium chloride and a probe substrate, in a 200 µl assay final volume in duplicate. The probe substrate concentrations including bupropion (CYP2B6), amodiaquine (CYP2C8), tolbutamide (CYP2C9), mephenytoin (CYP2C19), dextromethorphan (CYP2D6) and midazolam/testosterone […]
(§12) After incubation at 37 °C, reactions were terminated by addition of methanol containing internal standard (propranolol) for analytical quantification. The quenched samples were kept on ice for 10 min and centrifuged at 4 °C for 10 min. The supernatant was removed and the probe substrate metabolite was analyzed by LC-MS/MS (Agilent Technologies Triple Quad LC/MS). A decrease in the formation of the metabolite compared to vehicle control

CYP2C19 = CYP2C19 (Homo sapiens, UniProt P33261); experiment: biochemical
Chain of CYP2C19 (P33261 whole entry): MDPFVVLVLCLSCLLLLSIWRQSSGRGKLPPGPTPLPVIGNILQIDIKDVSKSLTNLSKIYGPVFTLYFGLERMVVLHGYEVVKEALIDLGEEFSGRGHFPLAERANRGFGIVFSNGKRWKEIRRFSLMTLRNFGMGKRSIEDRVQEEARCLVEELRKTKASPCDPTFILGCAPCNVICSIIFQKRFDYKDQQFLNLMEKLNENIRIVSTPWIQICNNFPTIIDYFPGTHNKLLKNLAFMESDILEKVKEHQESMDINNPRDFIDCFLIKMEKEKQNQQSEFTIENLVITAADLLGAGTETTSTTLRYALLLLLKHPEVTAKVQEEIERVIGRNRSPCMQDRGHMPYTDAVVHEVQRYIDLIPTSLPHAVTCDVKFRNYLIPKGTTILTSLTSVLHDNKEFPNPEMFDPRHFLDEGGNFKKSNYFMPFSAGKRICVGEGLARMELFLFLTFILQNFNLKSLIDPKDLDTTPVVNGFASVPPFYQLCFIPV
Experimental: as §5, §6, §7, §8, §9, §10, §11, §12

CYP2C8 = molecular target: T2, CYP2C8 (Homo sapiens, UniProt P10632); experiment: biochemical
T2 sequence (P10632 1-490): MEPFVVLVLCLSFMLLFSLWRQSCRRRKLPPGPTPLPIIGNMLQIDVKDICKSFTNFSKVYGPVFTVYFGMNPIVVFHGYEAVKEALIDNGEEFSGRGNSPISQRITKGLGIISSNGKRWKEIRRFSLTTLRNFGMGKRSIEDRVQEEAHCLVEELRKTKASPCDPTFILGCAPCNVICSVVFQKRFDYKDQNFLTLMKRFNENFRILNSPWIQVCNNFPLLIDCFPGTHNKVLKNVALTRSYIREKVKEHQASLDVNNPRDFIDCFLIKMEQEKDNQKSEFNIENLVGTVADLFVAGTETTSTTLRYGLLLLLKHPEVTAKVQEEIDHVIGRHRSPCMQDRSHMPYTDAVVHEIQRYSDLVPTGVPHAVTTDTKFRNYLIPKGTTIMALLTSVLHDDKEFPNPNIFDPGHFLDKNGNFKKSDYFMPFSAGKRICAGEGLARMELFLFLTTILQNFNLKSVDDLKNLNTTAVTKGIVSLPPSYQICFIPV
Experimental: as §5, §6, §7, §8, §9, §10, §11, §12

CYP2C9 = CYP2C9 (Homo sapiens, UniProt P11712); experiment: biochemical
Chain of CYP2C9 (P11712 whole entry): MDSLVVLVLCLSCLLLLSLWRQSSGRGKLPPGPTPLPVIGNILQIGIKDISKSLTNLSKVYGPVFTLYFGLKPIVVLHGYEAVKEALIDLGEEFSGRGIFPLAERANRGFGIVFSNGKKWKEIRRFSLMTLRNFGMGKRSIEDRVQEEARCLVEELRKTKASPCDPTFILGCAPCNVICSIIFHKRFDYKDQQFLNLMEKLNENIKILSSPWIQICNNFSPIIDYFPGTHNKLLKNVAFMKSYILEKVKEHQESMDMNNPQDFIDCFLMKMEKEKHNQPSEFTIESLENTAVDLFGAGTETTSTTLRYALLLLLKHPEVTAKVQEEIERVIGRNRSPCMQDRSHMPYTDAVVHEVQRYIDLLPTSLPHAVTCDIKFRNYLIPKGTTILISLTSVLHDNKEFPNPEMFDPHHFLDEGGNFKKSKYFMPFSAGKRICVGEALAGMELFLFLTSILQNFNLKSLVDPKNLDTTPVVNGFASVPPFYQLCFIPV
Experimental: as §5
(§13) Compounds were tested for inhibition of P450s using the enzyme substrate pairs and conditions noted. IC50s (µM) were calculated. Control P450 inhibitors were included for each isoform. […]
as §11, §12

CYP2D6 = CYP2D6 (Homo sapiens, UniProt P10635); experiment: biochemical
Chain of CYP2D6 (P10635 whole entry): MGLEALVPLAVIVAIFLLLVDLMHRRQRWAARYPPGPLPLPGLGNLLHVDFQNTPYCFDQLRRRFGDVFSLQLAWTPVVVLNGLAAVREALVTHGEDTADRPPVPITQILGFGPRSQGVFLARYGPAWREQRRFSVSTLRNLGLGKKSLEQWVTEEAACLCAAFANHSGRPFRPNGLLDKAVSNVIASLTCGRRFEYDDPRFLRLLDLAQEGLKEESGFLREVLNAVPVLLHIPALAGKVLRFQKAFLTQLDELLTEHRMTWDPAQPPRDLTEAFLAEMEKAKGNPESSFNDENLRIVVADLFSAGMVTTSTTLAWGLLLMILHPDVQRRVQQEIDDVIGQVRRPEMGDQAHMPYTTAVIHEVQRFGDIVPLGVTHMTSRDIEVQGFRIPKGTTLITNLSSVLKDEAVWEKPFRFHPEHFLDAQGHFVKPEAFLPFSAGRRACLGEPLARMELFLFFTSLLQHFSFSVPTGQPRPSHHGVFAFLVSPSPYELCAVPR
Experimental: as §5, §13, §8, §9, §11, §12

CYP3A4 = CYP3A4 (Homo sapiens, UniProt P08684); experiment: Cytochrome P450 inhibition; type: in vitro ADME; conditions: liver microsomes
Chain of CYP3A4 (P08684 2-503): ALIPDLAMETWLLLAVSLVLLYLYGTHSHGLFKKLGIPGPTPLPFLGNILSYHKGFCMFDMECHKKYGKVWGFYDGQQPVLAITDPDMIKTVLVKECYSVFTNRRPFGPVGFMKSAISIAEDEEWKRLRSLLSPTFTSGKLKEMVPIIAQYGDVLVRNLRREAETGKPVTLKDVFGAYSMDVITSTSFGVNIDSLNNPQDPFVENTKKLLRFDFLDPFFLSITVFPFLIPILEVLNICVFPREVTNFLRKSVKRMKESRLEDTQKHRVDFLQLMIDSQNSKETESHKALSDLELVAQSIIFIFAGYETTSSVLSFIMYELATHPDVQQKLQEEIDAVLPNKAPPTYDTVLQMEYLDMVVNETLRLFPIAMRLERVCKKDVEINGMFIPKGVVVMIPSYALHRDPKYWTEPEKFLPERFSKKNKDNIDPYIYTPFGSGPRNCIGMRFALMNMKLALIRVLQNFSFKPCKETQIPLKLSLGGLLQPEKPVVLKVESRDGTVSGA
Experimental: as §5, §6, §7, §8, §9, §10, §11, §12

[7] = Plasma protein binding (Rapid Equilibrium Dialysis); type: in vitro ADME, human; conditions: human; for fraction unbound at 4 h, 5 µM: plasma
Experimental: Molecule fraction fraction Post-Assay
Table S5. Plasma protein binding
Protein binding was measured in human plasma using Rapid Equilibrium Dialysis (RED) devices (Pierce) according to the manufacturers’ instructions; 5 µM compounds in plasma were dialysed against PBS for 4 h at 37C. Compounds were detected by LC-MS/MS in plasma and PBS

[8] = tested on: intracellular M. tuberculosis (MTB) in RAW 264.7 macrophages; experiment: Activity against intracellular M. tuberculosis in macrophages (high-content microscopy); type: cell-based; conditions: Mycobacterium tuberculosis, RAW264.7, 72 h, intracellular M. tuberculosis in RAW 264.7 macrophages
Experimental: as §1

[9] = Mean plasma fraction Unbound Fuplasma

Structure (SMILES)	MIC [1]	MIC Wild type [1]	MIC LepB-UE [2]	MIC [2]	IC50 (HepG2 cells; Homo sapiens, HepG2, 72 h)	Papp A→B at 2 h, 10 µM (in vitro)	Papp B→A at 2 h, 10 µM (in vitro)	efflux ratio at 2 h, 10 µM (in vitro)	dQ/dt (rate of permeation), mean (Caco-2 cells; A→B, assay duration 1 hr)	dQ/dt (rate of permeation), mean (Caco-2 cells; A→B, assay duration 2 hr)	dQ/dt (rate of permeation), mean (Caco-2 cells; B→A, assay duration 1 hr)	dQ/dt (rate of permeation), mean (Caco-2 cells; B→A, assay duration 2 hr)	half-life at 1 µM [5]	microsomal CLint at 1 µM [5]	IC50 (CYP2B6)	IC50 (CYP2C19)	IC50 (CYP2C8)	IC50 (CYP2C9)	IC50 (CYP2D6)	IC50 at 10 min (CYP3A4; pH 7.4, probe midazolam)	further results
Cc1coc(NC(=S)NCC(C)C)n1 [Molecule 29, 1-isobutyl-3-(4-methyloxazol-2-yl)thiourea]	20 to 40 µM (≈ 4.27 to 8.53 µg/mL)	20 ± 23 µM (≈ 4.27 µg/mL)	12 ± 1.0 µM (≈ 2.56 µg/mL)	12 to 21 µM (≈ 2.56 to 4.48 µg/mL)	27 to 78 µM																IC50 (HepG2 cells): 27 ± 6 µM; IC50 (RAW 264.7 macrophages): 8.1 ± 1.6 µM; concentration giving sterilization of nonreplicating organisms [3]: 100 µM; concentration with bactericidal activity (defined as 3 log kill) [4]: 27.5 μM
CCCCNC(=S)Nc1nccs1 [Molecule 14, 1-butyl-3-(thiazol-2-yl)thiourea]	34 µM (≈ 7.32 µg/mL)	34 ± 3.0 µM (≈ 7.32 µg/mL)	41 ± 0.1 µM (≈ 8.83 µg/mL)	41 µM (≈ 8.83 µg/mL)	75 ± 26 µM	22 ×10⁻⁶ cm/s	18 ×10⁻⁶ cm/s	0.81	2.6E-04	1.5E-04	2.3E-04	1.6E-04	26 min	89 µL/min/mg	> 20 µM	13.5 µM	> 20 µM	13.2 µM	> 20 µM	> 20 µM	recovery at 1 h, 10 μM (in vitro; Caco-2, recovery): 57%; recovery at 2 h, 10 μM (in vitro; Caco-2, recovery): 59%; recovery (Caco-2 cells; Caco-2, 1 h): 72%; recovery (Caco-2 cells; Caco-2, 2 h): 65%; IC50 [6]: > 200 µM; IC50 at 10 min (CYP3A4; pH 7.4, probe testosterone): > 20 µM; recovery at 4 h, 5 µM [7]: 83.8%; fraction unbound at 4 h, 5 µM ([7]; Mean plasma fraction Bound): 0.01; fraction unbound at 4 h, 5 µM [7, 9]: 0.0098
COCCCNC(=S)Nc1nc2ccccc2s1 [Molecule 24, 1-(benzo[d]thiazol-2-yl)-3-(3-methoxypropyl)thiourea]	65 ± 21 µM (≈ 18.3 µg/mL)			58 ± 1 µM (≈ 16.3 µg/mL)	65 ± 60 µM	17 ×10⁻⁶ cm/s	15 ×10⁻⁶ cm/s	0.87	1.1E-04	8.8E-05	8.0E-05	1.1E-04	8.2 min	282 µL/min/mg	> 20 µM	> 20 µM	> 20 µM	> 20 µM	> 20 µM	> 20 µM	recovery at 2 h, 10 μM (in vitro; Caco-2, recovery): 54%; IC50 at 10 min (CYP3A4; pH 7.4, probe testosterone): > 20 µM; recovery at 4 h, 5 µM [7]: 76.5%; fraction unbound at 4 h, 5 µM ([7]; Mean plasma fraction Bound): 0.055; fraction unbound at 4 h, 5 µM [7, 9]: 0.055
CCCNC(=S)Nc1nc2c(Cl)cccc2s1 [Molecule 31, 1-(4-chlorobenzo[d]thiazol-2-yl)-3-propyl thiourea]	> 100 µM		14 ± 2.0 µM (≈ 4 µg/mL)	14 µM (≈ 4 µg/mL)	> 100 µM																IC50 [8]: 11 ± 2.2 µM; IC50 (RAW 264.7 macrophages): > 100 µM
CCCCNC(=S)Nc1nc2ccccc2o1 [Molecule 12, 1-(benzo[d]oxazol-2-yl)-3-butylthiourea]	23 to 32 µM (≈ 5.73 to 7.98 µg/mL)	23 ± 9.0 µM (≈ 5.73 µg/mL)	32 ± 11 µM (≈ 7.98 µg/mL)	23 to 32 µM (≈ 5.73 to 7.98 µg/mL)	21 ± 19 µM	4.9 ×10⁻⁶ cm/s	5.8 ×10⁻⁶ cm/s	1.2	3.4E-05	3.2E-05	2.7E-05	3.0E-05	11 min	218 µL/min/mg	> 20 µM	12.7 µM	> 20 µM	> 20 µM	> 20 µM	> 20 µM	IC50 [6]: > 200 µM; IC50 at 10 min (CYP3A4; pH 7.4, probe testosterone): > 20 µM; recovery at 4 h, 5 µM [7]: 80.1%; fraction unbound at 4 h, 5 µM ([7]; Mean plasma fraction Bound): 0.002; fraction unbound at 4 h, 5 µM [7, 9]: 0.002
